Experimental data from patent publication US9498480B2 (Bayer Intellectual Property GmbH, priority 2012, dated 2016).

test system: recombinant guanylate cyclase reporter cell line; assay: Effect on a recombinant guanylate cyclase reporter cell line; assay type: cell-based; conditions: representative values, read-out: MEC (minimum effective concentration)
Procedure: B-2. Effect on a Recombinant Guanylate Cyclase Reporter Cell Line
The cellular activity of the compounds according to the invention is determined using a recombinant guanylate cyclase reporter cell line, as described in F. Wunder et al., Anal. Biochem. 339, 104-112 (2005).

How did the minimal effective concentration turn out when Cc1n[nH]c2nc(-c3nn(Cc4ncccc4F)c4ncc(F)cc34)nc(N)c12 [Example 1, 6-{5-Fluoro-1-[(3-fluoropyridin-2-yl)methyl]-1H-pyrazolo[3,4-b]pyridin-3-yl}-3-methyl-1H-pyrazolo[3,4-d]pyrimidine-4-amine] was run?
The minimal effective concentration was 0.3 µM.

For CCN(CC)c1n[nH]c2nc(-c3nn(Cc4ncccc4F)c4ncc(F)cc34)nc(N)c12 [Example 2, N^3,N^3-Diethyl-6-{5-fluoro-1-[(3-fluoropyridin-2-yl)methyl]-1H-pyrazolo[3,4-b]pyridin-3-yl}-1H-pyrazolo[3,4-d]pyrimidine-3,4-diamine], which minimal effective concentration is on record?
Its minimal effective concentration is 0.1 µM.

How did the minimal effective concentration turn out when Nc1nc(-c2nn(Cc3ncccc3F)c3ncc(F)cc23)nc2ncccc12 [Example 3, 2-{5-Fluoro-1-[(3-fluoropyridin-2-yl)methyl]-1H-pyrazolo[3,4-b]pyridin-3-yl}pyrido[2,3-d]pyrimidine-4-amine] was run?
The minimal effective concentration was 10 µM.

Which minimal effective concentration does the source give for COc1n[nH]c2nc(-c3nn(Cc4ncccc4F)c4ncc(F)cc34)nc(N)c12 [Example 4, 6-{5-Fluoro-1-[(3-fluoropyridin-2-yl)methyl]-1H-pyrazolo[3,4-b]pyridin-3-yl}-3-methoxy-1H-pyrazolo[3,4-d]pyrimidine-4-amine] here?
Its minimal effective concentration is 0.3 µM.

With O=c1[nH]c2nc(-c3nn(Cc4ccccc4F)c4ncc(F)cc34)nc(NCC3CC3)c2n1CC(F)(F)F [Example 5, 6-[(Cyclopropylmethyl)amino]-2-[5-fluoro-1-(2-fluorobenzyl)-1H-pyrazolo[3,4-b]pyridin-3-yl]-7-(2,2,2-trifluoroethyl)-7,9-dihydro-8H-purin-8-one] as the compound, how does the minimal effective concentration read?
Its minimal effective concentration is 0.3 µM.

Which minimal effective concentration does the source give for Cc1n[nH]c2nc(-c3nc(Cc4ccccc4F)n4ncccc34)nc(N)c12 [Example 7, 6-[7-(2-Fluorobenzyl)imidazo[1,5-b]pyridazin-5-yl]-3-methyl-1H-pyrazolo[3,4-d]pyrimidine-4-amine] here?
Its minimal effective concentration is 0.01 µM.

With Cc1n[nH]c2nc(-c3nn(CCC(F)(F)C(F)(F)F)c4ncc(F)cc34)nc(N)c12 [Example 8, 6-[5-Fluoro-1-(3,3,4,4,4-pentafluorobutyl)-1H-pyrazolo[3,4-b]pyridin-3-yl]-3-methyl-1H-pyrazolo[3,4-d]pyrimidine-4-amine] as the compound, how does the minimal effective concentration read?
The minimal effective concentration was 0.1 µM.

CCN(CC)c1n[nH]c2nc(-c3nn(CCC(F)(F)C(F)(F)F)c4ncc(F)cc34)nc(N)c12 [Example 9] was tested. Which minimal effective concentration did it give?
The minimal effective concentration was 0.03 µM.

Nc1nc(-c2nn(CCC(F)(F)C(F)(F)F)c3ncc(F)cc23)nc2ncccc12 [Example 10, 2-[5-Fluoro-1-(3,3,4,4,4-pentafluorobutyl)-1H-pyrazolo[3,4-b]pyridin-3-yl]pyrido[2,3-d]pyrimidine-4-amine] was tested. Which minimal effective concentration did it give?
Its minimal effective concentration is 0.3 µM.
